In brackets after ≈: the same amount, converted by molar mass. Where two headings read alike, the source gives them in different places. Starred links: 1 amine or outer side, 2 acyl side, 3 side chain; linkers in the order of their positions; H or OH if unused. Non-standard residues stand in square brackets, D forms with d. Residues, ends and D or L forms follow the SMILES beside them. Groups on a side chain read outwards from the residue. *: point of attachment. γGlu = O=C(O)[C@H](CCC(=O)[*:2])N[*:1]; Palmitoyl = CCCCCCCCCCCCCCCC(=O)*; AEEA = NCCOCCOCC(=O)O; Aib = CC(C)(N)C(=O)O
Tests used:
[1] = Solubility in buffer
[2] = molecular target: GLP-1R (Homo sapiens, UniProt P43220); assay: GLP-1 receptor-mediated cAMP induction, luciferase reporter gene antagonism assay; format: cell-based; set-up: host or cells: HEK 293; settings: antagonism of 0.05 nM GLP-1, HEK 293 cells
Description: GLP-1 Receptor-Mediated cAMP Induction The ability of peptides to stimulate or block cAMP induction at the GLP-1 receptor was examined by a luciferase-based reporter gene assay. Cotransfection of HEK 293 cells with the human GLP-1 receptor (Open Biosystems) and a cAMPinducible (cAMPresponsive element) luciferase gene constituted the cellular construct where receptor activation could be measured. Bioassays were performed by first serum depriving the cells for 16 h in 0.25% bovine growth serum (HyClone)-supplemented Dulbecco's modified Eagle's medium (Invitrogen) and then adding serial dilutions of the peptides over the appropriate concentration ranges in 96-well poly-D-lysine-coated plates (BD Biosciences). For antagonism assays, a constant concentration of GLP-1 (0.05 nM) was added to the assay plate after the diluted peptides. Incubation continued for 5 h at 37° C., 5% CO2 and was followed by the addition of an equivalent volume (100 μL) of LucLite luminescence substrate reagent (Perkin-Elmer). MicroBeta 1450 liquid scintillation counting (Perkin-Elmer) quantified the luminescence signal in counts per second (cps) after shaking the plate at 600 rpm for 3 min. Data was plotted using Origin software (OriginLab) and the effective concentration 50 (EC50) or inhibitory concentration 50 (IC50) was determined by sigmoidal fitting. Potency was determined by comparative analysis of relative EC50 or IC50 values. Each experiment was repeated at least three times with each sample assayed in duplicate.

[3] = 80 mM ammonium bicarbonate buffer, pH 7.7
[4] = PBS, pH 7.7, Solubility [mg/mL] PBS pH7.7, Table 4, PBS pH7.7
[5] = Table 4, Aib variants of 9-40am Jant4 K40[C16], read-out: Bioactivity IC50
[6] = 80 mM ammonium bicarbonate buffer, pH 7.7, Solubility [mg/mL] 80 mM/AmBicarb pH7.7, Table 5, 80 mM AmBicarb pH7.7
[7] = Table 5, d-AA variants of 9-40am Jant4 K40[C16], read-out: Bioactivity KC50
[8] = 80 mM ammonium bicarbonate buffer, pH 7.7, Solubility [mg/mL] 80 mM AmBicarb pH7.7, Table 2, 80 mM AmBicarb pH7.7

Chain of GLP-1R (P43220 24-463): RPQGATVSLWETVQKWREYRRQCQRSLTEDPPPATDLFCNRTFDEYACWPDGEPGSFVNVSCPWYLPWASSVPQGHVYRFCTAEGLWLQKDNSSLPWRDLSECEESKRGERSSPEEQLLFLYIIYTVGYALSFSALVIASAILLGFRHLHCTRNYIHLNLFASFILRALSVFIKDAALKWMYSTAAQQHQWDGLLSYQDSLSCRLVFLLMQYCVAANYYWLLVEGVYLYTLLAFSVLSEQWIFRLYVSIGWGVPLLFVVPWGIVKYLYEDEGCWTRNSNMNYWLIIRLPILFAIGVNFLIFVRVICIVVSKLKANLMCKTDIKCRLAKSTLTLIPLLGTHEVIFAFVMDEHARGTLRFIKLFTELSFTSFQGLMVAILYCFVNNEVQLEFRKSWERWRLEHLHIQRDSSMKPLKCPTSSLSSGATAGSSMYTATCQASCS

## CCCCCCCCCCCCCCCC(=O)NCCCC[C@H](NC(=O)[C@H](CO)NC(=O)[C@@H]1CCCN1C(=O)[C@@H]1CCCN1C(=O)[C@@H]1CCCN1C(=O)[C@H](C)NC(=O)CNC(=O)[C@H](CO)NC(=O)[C@H](CO)NC(=O)[C@@H]1CCCN1C(=O)CNC(=O)CNC(=O)[C@H](CCCCN)NC(=O)[C@@H](NC(=O)[C@H](CC(C)C)NC(=O)[C@H](Cc1c[nH]c2ccccc12)NC(=O)[C@H](C)NC(=O)[C@@H](NC(=O)[C@H](Cc1ccccc1)NC(=O)[C@H](CCC(=O)O)NC(=O)[C@H](CCCNC(=N)N)NC(=O)C(C)(C)NC(=O)[C@H](C)NC(=O)[C@H](CCC(N)=O)NC(=O)[C@H](CCC(=O)O)NC(=O)[C@H](CCC(=O)O)NC(=O)[C@H](CC(C)C)NC(=O)[C@H](Cc1ccc(O)cc1)NC(=O)[C@H](CO)NC(=O)[C@H](CO)NC(=O)[C@@H](NC(=O)[C@@H](N)CC(=O)O)C(C)C)[C@@H](C)CC)C(C)C)C(N)=O [compound 45] (H-DVSSYLEEQA[Aib]REFIAWLVKGGPSSGAPPPSK(Palmitoyl)-NH2; N-terminus assumed)
[1]; [3]
  solubility: 11.1 mg/mL (≈ 3.06 mM)
[1]; [4]
  solubility: 0.4 mg/mL (≈ 0.11 mM)
[2]; [5]
  IC50: 8 nM

## CCCCCCCCCCCCCCCC(=O)NCCCC[C@H](NC(=O)[C@H](CO)NC(=O)[C@@H]1CCCN1C(=O)[C@@H]1CCCN1C(=O)[C@@H]1CCCN1C(=O)[C@H](C)NC(=O)CNC(=O)[C@H](CO)NC(=O)[C@H](CO)NC(=O)[C@@H]1CCCN1C(=O)CNC(=O)CNC(=O)[C@H](CCCCN)NC(=O)[C@@H](NC(=O)[C@H](CC(C)C)NC(=O)[C@H](Cc1c[nH]c2ccccc12)NC(=O)[C@H](C)NC(=O)[C@@H](NC(=O)[C@H](Cc1ccccc1)NC(=O)[C@H](CCC(=O)O)NC(=O)[C@H](CCCNC(=N)N)NC(=O)[C@@H](NC(=O)C(C)(C)NC(=O)[C@H](CCC(N)=O)NC(=O)[C@H](CCC(=O)O)NC(=O)[C@H](CCC(=O)O)NC(=O)[C@H](CC(C)C)NC(=O)[C@H](Cc1ccc(O)cc1)NC(=O)[C@H](CO)NC(=O)[C@H](CO)NC(=O)[C@@H](NC(=O)[C@@H](N)CC(=O)O)C(C)C)C(C)C)[C@@H](C)CC)C(C)C)C(N)=O [compound 46] (H-DVSSYLEEQ[Aib]VREFIAWLVKGGPSSGAPPPSK(Palmitoyl)-NH2; N-terminus assumed)
[1]; [3]
  solubility: 17.5 mg/mL (≈ 4.79 mM)
[1]; [4]
  solubility: 0.7 mg/mL (≈ 0.192 mM)
[2]; [5]
  IC50: 7 nM

## CCCCCCCCCCCCCCCC(=O)NCCCC[C@H](NC(=O)[C@H](CO)NC(=O)[C@@H]1CCCN1C(=O)[C@@H]1CCCN1C(=O)[C@@H]1CCCN1C(=O)[C@H](C)NC(=O)CNC(=O)[C@H](CO)NC(=O)[C@H](CO)NC(=O)[C@@H]1CCCN1C(=O)CNC(=O)CNC(=O)[C@H](CCCCN)NC(=O)[C@@H](NC(=O)[C@H](CC(C)C)NC(=O)[C@H](Cc1c[nH]c2ccccc12)NC(=O)[C@H](C)NC(=O)[C@@H](NC(=O)[C@H](Cc1ccccc1)NC(=O)[C@H](CCC(=O)O)NC(=O)[C@H](CCCNC(=N)N)NC(=O)[C@@H](NC(=O)[C@H](C)NC(=O)[C@H](CCC(N)=O)NC(=O)[C@H](CCC(=O)O)NC(=O)[C@@H](CCC(=O)O)NC(=O)[C@H](CC(C)C)NC(=O)[C@H](Cc1ccc(O)cc1)NC(=O)[C@H](CO)NC(=O)[C@H](CO)NC(=O)[C@@H](NC(=O)[C@@H](N)CC(=O)O)C(C)C)C(C)C)[C@@H](C)CC)C(C)C)C(N)=O [compound 49] (H-DVSSYL[dE]EQAVREFIAWLVKGGPSSGAPPPSK(Palmitoyl)-NH2; N-terminus assumed)
[1]; [6]
  solubility: > 20 mg/mL
[2]; [7]
  IC50: 23 nM

## CCCCCCCCCCCCCCCC(=O)NCCCC[C@H](NC(=O)[C@H](CO)NC(=O)[C@@H]1CCCN1C(=O)[C@@H]1CCCN1C(=O)[C@@H]1CCCN1C(=O)[C@H](C)NC(=O)CNC(=O)[C@H](CO)NC(=O)[C@H](CO)NC(=O)[C@@H]1CCCN1C(=O)CNC(=O)CNC(=O)[C@H](CCCCN)NC(=O)[C@@H](NC(=O)[C@H](CC(C)C)NC(=O)[C@H](Cc1c[nH]c2ccccc12)NC(=O)[C@H](C)NC(=O)[C@H](NC(=O)[C@H](Cc1ccccc1)NC(=O)[C@H](CCC(=O)O)NC(=O)[C@H](CCCNC(=N)N)NC(=O)[C@@H](NC(=O)[C@H](C)NC(=O)[C@H](CCC(N)=O)NC(=O)[C@H](CCC(=O)O)NC(=O)[C@H](CCC(=O)O)NC(=O)[C@H](CC(C)C)NC(=O)[C@H](Cc1ccc(O)cc1)NC(=O)[C@H](CO)NC(=O)[C@H](CO)NC(=O)[C@@H](NC(=O)[C@@H](N)CC(=O)O)C(C)C)C(C)C)[C@H](C)CC)C(C)C)C(N)=O [compound 51] (H-DVSSYLEEQAVREF[dI]AWLVKGGPSSGAPPPSK(Palmitoyl)-NH2; N-terminus assumed)
[1]; [6]
  solubility: > 20 mg/mL
[2]; [7]
  IC50: 31 nM

## CCCCCCCCCCCCCCCC(=O)N[C@@H](CCC(=O)NCCOCCOCC(=O)NCCCC[C@H](NC(=O)[C@H](CO)NC(=O)[C@@H]1CCCN1C(=O)[C@@H]1CCCN1C(=O)[C@@H]1CCCN1C(=O)[C@H](C)NC(=O)CNC(=O)[C@H](CO)NC(=O)[C@H](CO)NC(=O)[C@@H]1CCCN1C(=O)CNC(=O)CNC(=O)[C@H](CCCCN)NC(=O)[C@@H](NC(=O)[C@H](CC(C)C)NC(=O)[C@H](Cc1c[nH]c2ccccc12)NC(=O)[C@H](C)NC(=O)[C@@H](NC(=O)[C@H](Cc1ccccc1)NC(=O)[C@H](CCC(=O)O)NC(=O)[C@H](CCCNC(=N)N)NC(=O)[C@@H](NC(=O)[C@H](C)NC(=O)[C@H](CCC(N)=O)NC(=O)[C@H](CCC(=O)O)NC(=O)[C@H](CCC(=O)O)NC(=O)[C@H](CC(C)C)NC(=O)[C@H](Cc1ccc(O)cc1)NC(=O)[C@H](CO)NC(=O)[C@H](CO)NC(=O)[C@@H](NC(=O)[C@@H](N)CC(=O)O)C(C)C)C(C)C)[C@@H](C)CC)C(C)C)C(N)=O)C(=O)O [compound 56] (H-DVSSYLEEQAVREFIAWLVKGGPSSGAPPPSK([AEEA-γGlu-Palmitoyl])-NH2; N-terminus assumed)
[1]; [8]
  solubility: > 20 mg/mL

## CCCCCCCCCCCCCCCC(=O)N[C@@H](CCC(=O)N[C@@H](CCC(=O)NCCOCCOCC(=O)NCCOCCOCC(=O)NCCCC[C@H](NC(=O)[C@H](CO)NC(=O)[C@@H]1CCCN1C(=O)[C@@H]1CCCN1C(=O)[C@@H]1CCCN1C(=O)[C@H](C)NC(=O)CNC(=O)[C@H](CO)NC(=O)[C@H](CO)NC(=O)[C@@H]1CCCN1C(=O)CNC(=O)CNC(=O)[C@H](CCCCN)NC(=O)[C@@H](NC(=O)[C@H](CC(C)C)NC(=O)[C@H](Cc1c[nH]c2ccccc12)NC(=O)[C@H](C)NC(=O)[C@@H](NC(=O)[C@H](Cc1ccccc1)NC(=O)[C@H](CCC(=O)O)NC(=O)[C@H](CCCNC(=N)N)NC(=O)[C@@H](NC(=O)[C@H](C)NC(=O)[C@H](CCC(N)=O)NC(=O)[C@H](CCC(=O)O)NC(=O)[C@H](CCC(=O)O)NC(=O)[C@H](CC(C)C)NC(=O)[C@H](Cc1ccc(O)cc1)NC(=O)[C@H](CO)NC(=O)[C@H](CO)NC(=O)[C@@H](NC(=O)[C@@H](N)CC(=O)O)C(C)C)C(C)C)[C@@H](C)CC)C(C)C)C(N)=O)C(=O)O)C(=O)O [compound 58] (H-DVSSYLEEQAVREFIAWLVKGGPSSGAPPPSK([AEEA-AEEA-γGlu-γGlu-Palmitoyl])-NH2; N-terminus assumed)
[1]; [8]
  solubility: > 25 mg/mL

## CCCCCCCCCCCCCCCC(=O)NCCCC[C@H](NC(=O)[C@H](CO)NC(=O)[C@@H]1CCCN1C(=O)[C@@H]1CCCN1C(=O)[C@@H]1CCCN1C(=O)[C@H](C)NC(=O)CNC(=O)[C@H](CO)NC(=O)[C@H](CO)NC(=O)[C@@H]1CCCN1C(=O)CNC(=O)CNC(=O)[C@H](CCCCN)NC(=O)[C@@H](NC(=O)[C@H](CC(C)C)NC(=O)[C@H](Cc1c[nH]c2ccccc12)NC(=O)C(C)(C)NC(=O)[C@@H](NC(=O)[C@H](Cc1ccccc1)NC(=O)[C@H](CCC(=O)O)NC(=O)[C@H](CCCNC(=N)N)NC(=O)[C@@H](NC(=O)[C@H](C)NC(=O)[C@H](CCC(N)=O)NC(=O)[C@H](CCC(=O)O)NC(=O)[C@H](CCC(=O)O)NC(=O)[C@H](CC(C)C)NC(=O)[C@H](Cc1ccc(O)cc1)NC(=O)[C@H](CO)NC(=O)[C@H](CO)NC(=O)[C@@H](NC(=O)[C@@H](N)CC(=O)O)C(C)C)C(C)C)[C@@H](C)CC)C(C)C)C(N)=O [compound 83] (H-DVSSYLEEQAVREFI[Aib]WLVKGGPSSGAPPPSK(Palmitoyl)-NH2)
[1]; [3]
  solubility: 12.6 mg/mL (≈ 3.45 mM)
[1]; PBS, pH 7.7
  solubility: 0.3 mg/mL (≈ 0.0821 mM)

From patent publication US20240058422A1, “GLUCAGON-LIKE PEPTIDE-1 RECEPTOR ANTAGONISTS” (INDIANA UNIVERSITY RESEARCH AND TECHNOLOGY CORPORATION, priority 2022, published 2024)
